{"source": "paper PMC12340436", "about": "(The Journal of Biological Chemistry, 2025)", "key": {"RhsP2tox [1]": {"biological_target": "T1, RhsP2tox (Pseudomonas aeruginosa, UniProt A0A0H2Z8A2, E1576Q)", "T1 construct": "gene PA14_43100", "assay": "biochemical"}, "RhsP2tox [2]": {"biological_target": "T2, RhsP2tox (Pseudomonas aeruginosa, UniProt A0A0H2Z8A2)", "T2 construct": "gene PA14_43100; N-terminal His tag", "type": "binding"}}}
{"smiles": "NC(=O)c1ccc[n+]([C@@H]2O[C@H](COP(=O)(O)OP(=O)(O)OC[C@H]3O[C@@H](n4cnc5c(N)ncnc54)[C@H](O)[C@@H]3O)[C@@H](O)[C@H]2O)c1", "note": "[NAD^+]", "values": [{"measurement": "Kd", "setting": "RhsP2tox [1]", "value": "130 ± 38", "unit": "µM"}, {"measurement": "Kd", "setting": "RhsP2tox [2]", "value": "172 ± 25", "unit": "µM"}]}
